Experimental data taken from ChEMBL document CHEMBL1201862, “PubChem BioAssay data set” (2004).
Active and inactive are the calls of the source.

Columns and labels:
[1] = mammalian cell cytotoxicity, dose response, cytotoxicity control, plate reader, cherry-pick samples (AID 504397); format: functional, cell-based
[2] = molecular target: T1, Dual specificity protein phosphatase 6 (Rattus norvegicus, UniProt Q64346)
[3] = molecular target: Heat shock cognate 71 kDa protein (Homo sapiens, UniProt P11142); experiment: In Vitro Hsc70 Dose Response Fluorescence Polarization Assay. [Related pubchem assays: 1072 ]
[4] = molecular target: T2, Tyrosine-protein phosphatase non-receptor type 7 (Homo sapiens, UniProt P35236); format: functional
T2 sequence (P35236 whole entry): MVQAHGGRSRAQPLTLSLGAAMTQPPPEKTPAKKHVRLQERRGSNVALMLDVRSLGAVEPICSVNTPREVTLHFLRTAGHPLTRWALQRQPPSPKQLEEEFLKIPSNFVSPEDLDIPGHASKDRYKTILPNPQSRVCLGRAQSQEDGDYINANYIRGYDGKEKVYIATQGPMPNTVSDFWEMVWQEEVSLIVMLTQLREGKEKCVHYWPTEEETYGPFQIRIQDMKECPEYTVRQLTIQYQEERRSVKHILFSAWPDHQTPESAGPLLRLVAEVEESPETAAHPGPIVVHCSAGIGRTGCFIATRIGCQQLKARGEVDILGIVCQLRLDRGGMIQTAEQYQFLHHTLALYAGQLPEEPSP

[5] = molecular target: Glyceraldehyde-3-phosphate dehydrogenase (Homo sapiens, UniProt P04406)
[6] = molecular target: T1, Dual specificity protein phosphatase 6; format: functional
[7] = molecular target: Heat shock 70 kDa protein 1A (Homo sapiens, UniProt P0DMV8); experiment: Hsp70 inhibitors, SAR follow-up, biochemical, fluorescence polarization (AID 1072)
[8] = Luminescence Cell-Based Dose Response HTS to Identify Inhibitors of 5'UTR Stem-Loop Driven Prion Protein mRNA Translation in H4 Neuroglioblastoma Cells. [Related pubchem assays: 1827 (Project Summary), 1813 (Primary HTS)]; format: functional
[9] = Counterscreen for AddAB inhibitors: absorbance-based bacterial cell-based high throughput dose response assay for inhibitors of bacterial viability. [Related pubchem assays (depositor defined):AID435030, AID449728, AID449731, AID488942, AID488955, AID488956]; format: functional
[10] = inhibitors of SNCA 5'UTR-driven reporter translation, confirmation, H4 neuroglioma cells, luminescence (AID 1988); format: functional, cell-based
Exodeoxyribonuclease V = Exodeoxyribonuclease V (Escherichia coli (strain K12), UniProt P04993+P07648+P08394); experiment: E. coli RecBCD inhibitors, dose response, counter-screen for AddAB inhibitor project, absorbance, V66 E. coli, mutant T4 phage (AID 492957); format: functional, cell-based, Escherichia coli str. K-12 substr. MG1655
[11] = inhibitors of firefly luciferase expression or activity, dose response, H4 neuroglioma cells, luminescence (AID 1990); format: functional, cell-based
[12] = molecular target: Lysine-specific demethylase 4C (Homo sapiens, UniProt Q9H3R0); experiment: GASC-1 (JMJD2C) histone demethylase inhibitors, dose response, biochemical, DELFIA europium, cherry-picked samples (AID 488835); format: functional
[13] = molecular target: T3, RNA-binding protein pos-1 (Caenorhabditis elegans, UniProt G5EF15); experiment: inhibitors of POS-1/mex-3 RNA binding, dose response, biochemical, fluorescence polarization (AID 1964);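 note: purified POS-1 fused to maltose binding protein made in E. coli; potency of compounds blocking POS-1 binding to fluorescent RNA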
T3 sequence (G5EF15 whole entry): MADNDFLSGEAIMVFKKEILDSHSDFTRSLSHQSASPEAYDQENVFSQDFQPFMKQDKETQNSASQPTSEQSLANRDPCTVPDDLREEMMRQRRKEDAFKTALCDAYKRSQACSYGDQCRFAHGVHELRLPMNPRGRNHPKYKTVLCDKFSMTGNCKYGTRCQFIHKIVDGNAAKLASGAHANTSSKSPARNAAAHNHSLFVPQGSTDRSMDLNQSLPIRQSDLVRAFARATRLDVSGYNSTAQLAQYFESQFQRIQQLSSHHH

[14] = molecular target: T4, Zinc finger protein mex-5 (Caenorhabditis elegans, UniProt Q9XUB2); experiment: MEX-5/TCR-2 RNA interaction inhibitors, dose response, biochemical, C. elegans, fluorescence polarization (AID 1960)
T4 sequence (Q9XUB2 whole entry): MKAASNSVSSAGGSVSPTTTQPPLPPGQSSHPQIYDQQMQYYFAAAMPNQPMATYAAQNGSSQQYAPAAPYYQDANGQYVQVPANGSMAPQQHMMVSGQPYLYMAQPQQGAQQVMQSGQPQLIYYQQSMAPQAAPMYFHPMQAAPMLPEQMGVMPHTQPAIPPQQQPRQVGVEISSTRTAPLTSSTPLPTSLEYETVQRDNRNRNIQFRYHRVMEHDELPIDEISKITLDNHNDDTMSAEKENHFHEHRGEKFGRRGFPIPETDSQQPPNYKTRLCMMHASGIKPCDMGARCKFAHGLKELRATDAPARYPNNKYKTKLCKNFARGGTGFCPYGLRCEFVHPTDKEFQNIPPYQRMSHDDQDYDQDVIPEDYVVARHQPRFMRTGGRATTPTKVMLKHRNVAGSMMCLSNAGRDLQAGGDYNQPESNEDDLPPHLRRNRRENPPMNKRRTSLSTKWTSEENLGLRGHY

[15] = molecular target: UDP-galactopyranose mutase (Mycobacterium tuberculosis, UniProt P9WIQ1); experiment: Inhibitors of Mycobacterium tuberculosis UDP-galactopyranose mutase (UGM) enzyme Measured in Biochemical System Using Plate Reader - 2105-02_Inhibitor_Dose_CherryPick_Activity. [Related pubchem assays (depositor defined):AID504439]
[16] = molecular target: T5, Runt-related transcription factor 1/Core-binding factor subunit beta (Homo sapiens, UniProt Q01196+Q13951); experiment: inhibitors of RUNX1 Runt–CBFb-SMMHC binding, primary screen, biochemical, FRET, Cerulean-Runt, Venus-CBFb-SMMHC, uHTS (AID 1434); format: protein assay;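 note: partner is the CBFb-SMMHC leukemia fusion protein rather than wild-type CBFb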
[17] = molecular target: T5, Runt-related transcription factor 1/Core-binding factor subunit beta; experiment: inhibitors of RUNX1 Runt–CBFb-SMMHC binding, biochemical, TR-FRET (AID 1438); format: protein assay
[18] = molecular target: Induced myeloid leukemia cell differentiation protein Mcl-1 (Homo sapiens, UniProt Q07820); format: functional
Cytochrome P450 3A4 = Cytochrome P450 3A4 (Homo sapiens, UniProt P08684);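 note: CYP3A4 tested as one member of a cytochrome P450 panel screen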
[19] = molecular target: G-protein coupled receptor 55 (Homo sapiens, UniProt Q9Y2T6); experiment: GPR55 antagonists, SAR follow-up, counter-screen for GPR35 antagonist project, imaging, image-based (AID 2397); format: functional
[20] = cytotoxicity in HMLE control line with eGFP shRNA, dose response, counter-screen for HMLE_sh_ECad selective toxicity project, cell-based, HMLE_sh_eGFP, luminescence (AID 463074); format: functional, Homo sapiens;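 note: HMLE human mammary epithelial cells expressing control shRNA against eGFP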
[21] = Luminescence Cell-Based Dose Retest to Confirm Inhibitors of Cancer Stem Cells. [Related pubchem assays (depositor defined):AID2717, AID2721]; format: functional; details: Homo sapiens
[22] = molecular target: T6, Intestinal-type alkaline phosphatase (Homo sapiens, UniProt P09923); experiment: human IAP activators, dose response, biochemical, luminescent, uHTS hits, set 2 (AID 488817); format: functional;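 note: potency of activators that raise enzyme activity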
[23] = molecular target: T7, Intestinal-type alkaline phosphatase (Mus musculus, UniProt P24822); experiment: PubChem AID 488875; format: functional
[24] = molecular target: T8, Alkaline phosphatase, tissue-nonspecific isozyme (Homo sapiens, UniProt P05186); experiment: TNAP enzyme activators, dose response, selectivity assay for human IAP activator project, biochemical, TNAP isozyme, human IAP uHTS hits (AID 488886); format: functional;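 note: potency of compounds raising TNAP activity as a selectivity check on IAP activators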
T8 sequence (P05186 whole entry): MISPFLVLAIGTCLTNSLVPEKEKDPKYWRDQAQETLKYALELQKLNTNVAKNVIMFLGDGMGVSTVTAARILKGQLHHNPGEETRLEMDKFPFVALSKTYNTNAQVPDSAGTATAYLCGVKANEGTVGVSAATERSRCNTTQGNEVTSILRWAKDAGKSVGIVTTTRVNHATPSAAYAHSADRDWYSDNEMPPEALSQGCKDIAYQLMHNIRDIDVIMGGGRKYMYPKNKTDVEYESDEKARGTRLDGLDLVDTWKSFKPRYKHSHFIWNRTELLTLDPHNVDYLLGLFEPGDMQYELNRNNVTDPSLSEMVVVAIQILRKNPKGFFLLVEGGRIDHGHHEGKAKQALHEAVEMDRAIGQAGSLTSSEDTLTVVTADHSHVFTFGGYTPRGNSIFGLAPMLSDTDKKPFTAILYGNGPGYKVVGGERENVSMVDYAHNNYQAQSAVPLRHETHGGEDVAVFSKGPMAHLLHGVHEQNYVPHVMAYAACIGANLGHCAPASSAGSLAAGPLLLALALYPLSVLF

[25] = molecular target: T6, Intestinal-type alkaline phosphatase; experiment: human intestinal alkaline phosphatase activators, dose response, biochemical, luminescence, uHTS hits (AID 463120); format: functional
[26] = molecular target: T6, Intestinal-type alkaline phosphatase; experiment: activation of human intestinal alkaline phosphatase – biochemical, dose response (AID 488873); format: functional
[27] = molecular target: T9, Mannose-6-phosphate isomerase (Homo sapiens, UniProt P34949); experiment: human PMI inhibitors, high substrate, primary screen, biochemical, fluorescence intensity, high mannose 6-phosphate (AID 1220)
T9 sequence (P34949 whole entry): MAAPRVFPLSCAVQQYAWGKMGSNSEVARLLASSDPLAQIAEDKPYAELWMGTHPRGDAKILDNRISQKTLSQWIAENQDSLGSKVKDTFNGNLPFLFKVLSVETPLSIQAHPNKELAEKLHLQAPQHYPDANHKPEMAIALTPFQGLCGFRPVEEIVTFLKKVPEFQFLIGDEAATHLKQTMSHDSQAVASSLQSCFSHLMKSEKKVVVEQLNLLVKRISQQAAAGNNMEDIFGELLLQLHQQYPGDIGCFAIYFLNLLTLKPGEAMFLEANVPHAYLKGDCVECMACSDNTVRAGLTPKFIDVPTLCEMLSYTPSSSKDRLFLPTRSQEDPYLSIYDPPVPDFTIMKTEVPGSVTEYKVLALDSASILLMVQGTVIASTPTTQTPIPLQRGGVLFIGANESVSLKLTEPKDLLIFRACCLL

Estrogen receptor beta = Estrogen receptor beta (Homo sapiens, UniProt Q92731); experiment: ERβ–SRC-3 coactivator interaction inhibitors, confirmation, orthogonal assay, biochemical, ELISA, streptavidin-HRP readout (AID 1060)
[28] = molecular target: T7, Intestinal-type alkaline phosphatase; experiment: mouse intestinal alkaline phosphatase activators, dose response, biochemical, luminescence, uHTS hits (AID 488783); format: functional
[29] = molecular target: T8, Alkaline phosphatase, tissue-nonspecific isozyme; experiment: TNAP enzyme activators, dose response, selectivity assay for mouse IAP activator project, biochemical, TNAP isozyme, mouse IAP uHTS hits (AID 488880); format: functional
[30] = molecular target: Delta-type opioid receptor (Homo sapiens, UniProt P41143); experiment: SAR Analysis of Agonists of the DOR Receptor using an Image-Based Assay - Set 3. [Related pubchem assays (depositor defined):AID1777, AID1786]; format: functional
[31] = molecular target: T10, Kappa-type opioid receptor (Homo sapiens, UniProt P41145); experiment: SAR analysis of small molecule agonists of the kappa opioid receptor via a luminescent beta-arrestin assay - Set 3. [Related pubchem assays (depositor defined):AID1777, AID1785, AID1786, AID1966, AID2133, AID2136, AID2284, AID2500]; format: functional
Mu-type opioid receptor = Mu-type opioid receptor (Homo sapiens, UniProt P35372); experiment: SAR Analysis of Agonists of the MOR Receptor using an Image-Based Assay - Set 3. [Related pubchem assays (depositor defined):AID1777, AID1785, AID1786, AID1966, AID2133, AID2136, AID2284, AID2285, AID2352]; format: functional
[32] = molecular target: T10, Kappa-type opioid receptor; experiment: KOR agonist analogs, arrestin-GFP redistribution, SAR follow-up, imaging, image-based, set 3 (AID 488833); format: functional

T6 sequence (P09923 whole entry): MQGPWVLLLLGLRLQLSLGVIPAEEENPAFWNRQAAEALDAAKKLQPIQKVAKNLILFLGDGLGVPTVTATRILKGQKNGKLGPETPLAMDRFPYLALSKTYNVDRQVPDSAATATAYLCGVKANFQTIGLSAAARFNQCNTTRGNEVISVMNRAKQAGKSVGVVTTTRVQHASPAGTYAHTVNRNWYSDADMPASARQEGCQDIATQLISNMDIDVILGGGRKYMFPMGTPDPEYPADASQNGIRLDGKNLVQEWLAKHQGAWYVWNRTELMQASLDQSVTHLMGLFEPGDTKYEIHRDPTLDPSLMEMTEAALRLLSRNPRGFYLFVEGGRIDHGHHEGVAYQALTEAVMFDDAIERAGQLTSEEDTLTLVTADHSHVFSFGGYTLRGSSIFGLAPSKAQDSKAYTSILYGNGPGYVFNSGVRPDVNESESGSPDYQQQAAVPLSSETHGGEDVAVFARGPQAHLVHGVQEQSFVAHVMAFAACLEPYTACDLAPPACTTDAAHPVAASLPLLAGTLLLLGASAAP
Chain of Cytochrome P450 3A4 (P08684 whole entry): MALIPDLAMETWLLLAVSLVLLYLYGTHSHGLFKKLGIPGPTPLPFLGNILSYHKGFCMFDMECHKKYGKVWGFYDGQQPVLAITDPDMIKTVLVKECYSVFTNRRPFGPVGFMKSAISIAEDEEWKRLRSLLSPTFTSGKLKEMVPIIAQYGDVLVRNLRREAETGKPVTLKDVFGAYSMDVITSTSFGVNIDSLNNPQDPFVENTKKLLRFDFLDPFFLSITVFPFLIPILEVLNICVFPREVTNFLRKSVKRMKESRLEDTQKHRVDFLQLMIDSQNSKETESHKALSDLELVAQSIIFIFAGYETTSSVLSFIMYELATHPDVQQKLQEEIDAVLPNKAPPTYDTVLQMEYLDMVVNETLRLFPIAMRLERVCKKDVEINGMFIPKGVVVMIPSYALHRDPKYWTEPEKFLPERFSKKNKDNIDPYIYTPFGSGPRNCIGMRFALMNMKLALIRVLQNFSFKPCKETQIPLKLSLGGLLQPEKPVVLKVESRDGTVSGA
T5 sequence (Q01196 whole entry, the tested form may be a part): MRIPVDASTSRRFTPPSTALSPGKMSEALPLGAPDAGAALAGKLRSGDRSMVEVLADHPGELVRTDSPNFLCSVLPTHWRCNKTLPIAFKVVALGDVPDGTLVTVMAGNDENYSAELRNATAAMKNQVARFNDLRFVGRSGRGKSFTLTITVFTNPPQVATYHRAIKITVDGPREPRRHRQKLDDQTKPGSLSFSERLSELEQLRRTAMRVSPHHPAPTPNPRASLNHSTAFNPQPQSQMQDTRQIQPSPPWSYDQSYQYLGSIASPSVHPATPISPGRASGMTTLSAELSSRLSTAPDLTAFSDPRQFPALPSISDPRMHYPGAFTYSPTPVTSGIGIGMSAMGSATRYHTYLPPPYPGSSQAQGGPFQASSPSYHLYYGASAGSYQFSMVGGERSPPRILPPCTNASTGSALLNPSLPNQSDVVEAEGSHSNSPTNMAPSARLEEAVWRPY
T5 sequence (Q13951 whole entry, the tested form may be a part): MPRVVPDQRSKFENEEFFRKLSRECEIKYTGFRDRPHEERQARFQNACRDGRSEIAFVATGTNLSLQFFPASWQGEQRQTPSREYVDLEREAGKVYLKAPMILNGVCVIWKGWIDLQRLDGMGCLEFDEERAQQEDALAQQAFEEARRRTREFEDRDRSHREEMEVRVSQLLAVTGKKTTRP
T7 sequence (P24822 whole entry): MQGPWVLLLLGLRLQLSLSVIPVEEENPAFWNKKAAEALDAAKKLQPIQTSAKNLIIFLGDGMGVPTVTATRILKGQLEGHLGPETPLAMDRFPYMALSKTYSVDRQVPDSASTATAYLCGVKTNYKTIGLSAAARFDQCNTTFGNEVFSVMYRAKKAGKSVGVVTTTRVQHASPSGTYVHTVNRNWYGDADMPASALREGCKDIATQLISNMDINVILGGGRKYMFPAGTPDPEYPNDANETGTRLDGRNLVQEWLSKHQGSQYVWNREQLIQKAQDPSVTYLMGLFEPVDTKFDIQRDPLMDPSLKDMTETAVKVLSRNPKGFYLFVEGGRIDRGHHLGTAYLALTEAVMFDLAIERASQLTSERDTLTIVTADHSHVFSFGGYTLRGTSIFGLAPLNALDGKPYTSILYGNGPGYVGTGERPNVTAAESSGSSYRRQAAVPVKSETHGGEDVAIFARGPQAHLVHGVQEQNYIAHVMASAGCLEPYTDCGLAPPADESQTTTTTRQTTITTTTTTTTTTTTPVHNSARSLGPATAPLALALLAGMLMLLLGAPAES
T10 sequence (P41145 whole entry): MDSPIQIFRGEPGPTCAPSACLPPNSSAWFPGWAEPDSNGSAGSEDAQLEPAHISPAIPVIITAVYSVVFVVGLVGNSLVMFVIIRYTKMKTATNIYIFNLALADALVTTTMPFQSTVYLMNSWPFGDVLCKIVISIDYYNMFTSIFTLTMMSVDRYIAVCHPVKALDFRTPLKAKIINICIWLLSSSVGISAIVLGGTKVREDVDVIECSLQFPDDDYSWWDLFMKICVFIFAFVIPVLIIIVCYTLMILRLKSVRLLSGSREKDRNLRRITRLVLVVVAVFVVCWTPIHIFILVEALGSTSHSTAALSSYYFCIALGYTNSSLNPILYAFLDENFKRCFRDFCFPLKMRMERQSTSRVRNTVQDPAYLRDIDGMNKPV
T1 sequence (Q64346 whole entry): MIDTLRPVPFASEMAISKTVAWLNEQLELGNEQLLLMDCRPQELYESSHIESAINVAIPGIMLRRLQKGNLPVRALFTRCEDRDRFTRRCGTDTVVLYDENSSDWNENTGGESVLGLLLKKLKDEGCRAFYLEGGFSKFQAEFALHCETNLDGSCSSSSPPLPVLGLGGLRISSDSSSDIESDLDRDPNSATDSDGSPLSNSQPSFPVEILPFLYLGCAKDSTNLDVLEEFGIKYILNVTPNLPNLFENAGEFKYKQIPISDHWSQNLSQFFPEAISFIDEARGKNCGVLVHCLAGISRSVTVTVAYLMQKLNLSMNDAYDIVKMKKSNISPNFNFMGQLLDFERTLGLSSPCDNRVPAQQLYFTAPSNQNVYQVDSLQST
Chain of Heat shock 70 kDa protein 1A (P0DMV8 whole entry): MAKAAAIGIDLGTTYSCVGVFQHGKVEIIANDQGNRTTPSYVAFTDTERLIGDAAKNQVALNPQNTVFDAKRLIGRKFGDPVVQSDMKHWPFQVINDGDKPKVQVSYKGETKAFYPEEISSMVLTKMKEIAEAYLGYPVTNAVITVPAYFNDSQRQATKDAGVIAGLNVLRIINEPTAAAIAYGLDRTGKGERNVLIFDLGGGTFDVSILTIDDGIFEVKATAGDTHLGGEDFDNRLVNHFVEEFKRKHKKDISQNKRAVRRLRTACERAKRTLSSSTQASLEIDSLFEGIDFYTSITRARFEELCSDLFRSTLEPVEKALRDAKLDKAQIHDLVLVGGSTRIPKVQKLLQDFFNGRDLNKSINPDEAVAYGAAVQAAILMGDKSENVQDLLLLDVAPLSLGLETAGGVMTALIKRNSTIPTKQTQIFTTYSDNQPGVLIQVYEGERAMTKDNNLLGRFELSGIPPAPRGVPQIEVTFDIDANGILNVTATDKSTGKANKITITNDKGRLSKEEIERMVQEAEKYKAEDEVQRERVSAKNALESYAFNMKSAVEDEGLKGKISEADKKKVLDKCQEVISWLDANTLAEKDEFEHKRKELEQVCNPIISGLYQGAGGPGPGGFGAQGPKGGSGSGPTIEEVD
Chain of G-protein coupled receptor 55 (Q9Y2T6 whole entry): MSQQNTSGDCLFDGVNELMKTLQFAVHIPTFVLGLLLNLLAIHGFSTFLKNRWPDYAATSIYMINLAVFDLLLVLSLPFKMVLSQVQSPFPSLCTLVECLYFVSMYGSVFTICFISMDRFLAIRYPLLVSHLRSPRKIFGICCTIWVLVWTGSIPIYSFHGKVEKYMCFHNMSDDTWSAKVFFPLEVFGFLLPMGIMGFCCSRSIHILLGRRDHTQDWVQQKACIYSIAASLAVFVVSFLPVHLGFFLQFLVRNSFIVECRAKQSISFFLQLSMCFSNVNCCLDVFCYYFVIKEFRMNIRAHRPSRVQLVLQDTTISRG
Chain of Heat shock cognate 71 kDa protein (P11142 whole entry): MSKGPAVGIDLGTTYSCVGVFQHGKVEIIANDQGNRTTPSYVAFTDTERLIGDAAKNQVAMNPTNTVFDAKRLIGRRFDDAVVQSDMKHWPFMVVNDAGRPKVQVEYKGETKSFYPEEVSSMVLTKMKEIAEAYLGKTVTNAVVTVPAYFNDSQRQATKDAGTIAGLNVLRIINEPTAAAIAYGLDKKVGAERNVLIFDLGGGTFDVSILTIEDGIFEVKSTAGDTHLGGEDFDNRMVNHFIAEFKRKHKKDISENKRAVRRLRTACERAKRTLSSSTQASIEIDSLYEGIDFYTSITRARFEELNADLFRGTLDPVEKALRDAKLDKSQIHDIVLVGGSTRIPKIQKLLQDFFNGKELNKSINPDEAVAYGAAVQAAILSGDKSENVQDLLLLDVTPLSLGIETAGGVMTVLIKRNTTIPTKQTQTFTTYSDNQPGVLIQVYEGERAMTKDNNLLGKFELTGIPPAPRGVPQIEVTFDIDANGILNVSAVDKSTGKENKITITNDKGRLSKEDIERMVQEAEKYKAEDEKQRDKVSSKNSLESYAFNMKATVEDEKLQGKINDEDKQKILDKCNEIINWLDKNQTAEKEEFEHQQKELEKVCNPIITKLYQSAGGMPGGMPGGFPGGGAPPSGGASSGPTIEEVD
Chain of Glyceraldehyde-3-phosphate dehydrogenase (P04406 whole entry): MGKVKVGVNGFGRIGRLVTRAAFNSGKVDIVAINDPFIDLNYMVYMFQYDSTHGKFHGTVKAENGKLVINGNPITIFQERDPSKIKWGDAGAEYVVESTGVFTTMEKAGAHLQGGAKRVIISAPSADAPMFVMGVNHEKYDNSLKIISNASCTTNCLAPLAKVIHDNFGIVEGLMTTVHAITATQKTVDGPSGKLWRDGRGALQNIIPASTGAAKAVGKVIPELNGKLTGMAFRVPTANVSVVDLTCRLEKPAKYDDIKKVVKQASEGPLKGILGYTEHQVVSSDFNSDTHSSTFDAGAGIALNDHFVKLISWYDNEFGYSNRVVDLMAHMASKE

COc1ccccc1/C=C/C=N/NC(=O)CN1CCN(S(=O)(=O)c2ccc(C)cc2)CC1
AC50 [1]: 132 µM (active)

Cc1ccc(C)c2c1NC(C(=O)O)C1CC=CC21 (centres undefined)
IC50 [2]: > 100 µM (inactive)
IC50 [3]: > 100 µM (not active)
IC50 [4]: > 100 µM (not active)
IC50 [5]: > 100 µM (not active)
IC50 [6]: > 100 µM (inactive)
IC50 [7]: > 100 µM (not active)

CCCNC(=O)c1ccc2c(O)c(O)c(-c3ccsc3)nc2c1
EC50 [8]: 10.6 µM (active)
IC50 [9]: > 118 µM (inactive)
EC50 [10]: 8.96 µM (active)
IC50 (Exodeoxyribonuclease V): > 118 µM (inactive)
EC50 [11]: 11.7 µM (active)

COc1ccc(NC(=O)C2CCCCN2N)cc1OCC(C)C (centres undefined)
AC50 [12]: 27.6 µM (active)

NC(=O)Cn1cc(C=C2C(=O)NC(=O)NC2=O)c2ccccc21
EC50 [13]: > 300 µM (inconclusive)
EC50 [14]: > 300 µM (inconclusive)
AC50 [15]: 82.3 µM (active)

COc1ccc(C(=O)/N=c2\c(C#N)cc3c(=O)n4cccc(C)c4nc3n2Cc2ccco2)cc1
IC50 [16]: 8.9 µM (active)
EC50 [13]: 220 µM (active)
EC50 [14]: > 300 µM (not active)
IC50 [17]: 73.7 µM (inactive)
IC50 [18]: 3.9 µM (active)

COc1ccc(-c2nnc(-c3cccnc3)o2)cc1
AC50 (Cytochrome P450 3A4): 1.58 µM (inconclusive)
IC50 [19]: > 32 µM (inactive)

O=C(COc1ccccc1Cl)Nc1cc(Cl)ccc1Oc1ccccc1
AC50 (Cytochrome P450 3A4): 15.8 µM (inconclusive)
AC50 [20]: 120 µM (active)
AC50 [21]: 3.01 µM (active)

CCOc1cccc(-c2nc(C(N)=O)c3nc(O)n(-c4cccc(Cl)c4)c3n2)c1O
EC50 [22]: 3.66 µM (active)
EC50 [23]: > 100 µM (inactive)
EC50 [24]: 2.41 µM (active)
EC50 [25]: 4.9 µM (active)

Oc1ccc2cc3c4cc(Br)ccc4nc-3oc2c1O
EC50 [26]: 21.2 µM (active)
IC50 [27]: 30 µM (active)
IC50 (Estrogen receptor beta): 5.38 µM (not active)
EC50 [28]: 22.1 µM (active)
EC50 [29]: 24 µM (active)

CC(C)c1ccc(CSc2nnc(-c3ccccn3)n2Cc2ccco2)cc1
EC50 [30]: > 64 µM (inactive)
EC50 [31]: 5.97 µM (active)
EC50 (Mu-type opioid receptor): > 32 µM (inactive)
EC50 [32]: 2.84 µM (active)
